According to the kinase profiling compilation of Christmann-Franck et al. (2016):

Legend:
Experiment in all cases: KINOMEscan competition binding
Conditions in all cases: compound 0.1 µM
[1] = target: AURKA (human) (UniProt O14965)
[2] = target: BMP2K (human) (UniProt Q9NSY1)
[3] = target: BMPR2 (human) (UniProt Q13873)
[4] = target: CAMK2G (human) (UniProt Q13555)
[5] = target: CDK7 (human) (UniProt P50613)
[6] = target: CLK1 (human) (UniProt P49759)
[7] = target: DCLK1 (human) (UniProt O15075)
[8] = target: DCLK2 (human) (UniProt Q8N568)
[9] = target: DYRK1A (human) (UniProt Q13627)
[10] = system: EGFR (human), P00533 [746-750 del]
[11] = system: EGFR (human), P00533 [L858R]
[12] = target: ERBB3 (human) (UniProt P21860)
Chain of ERBB3 (human) (P21860 whole entry, looked up): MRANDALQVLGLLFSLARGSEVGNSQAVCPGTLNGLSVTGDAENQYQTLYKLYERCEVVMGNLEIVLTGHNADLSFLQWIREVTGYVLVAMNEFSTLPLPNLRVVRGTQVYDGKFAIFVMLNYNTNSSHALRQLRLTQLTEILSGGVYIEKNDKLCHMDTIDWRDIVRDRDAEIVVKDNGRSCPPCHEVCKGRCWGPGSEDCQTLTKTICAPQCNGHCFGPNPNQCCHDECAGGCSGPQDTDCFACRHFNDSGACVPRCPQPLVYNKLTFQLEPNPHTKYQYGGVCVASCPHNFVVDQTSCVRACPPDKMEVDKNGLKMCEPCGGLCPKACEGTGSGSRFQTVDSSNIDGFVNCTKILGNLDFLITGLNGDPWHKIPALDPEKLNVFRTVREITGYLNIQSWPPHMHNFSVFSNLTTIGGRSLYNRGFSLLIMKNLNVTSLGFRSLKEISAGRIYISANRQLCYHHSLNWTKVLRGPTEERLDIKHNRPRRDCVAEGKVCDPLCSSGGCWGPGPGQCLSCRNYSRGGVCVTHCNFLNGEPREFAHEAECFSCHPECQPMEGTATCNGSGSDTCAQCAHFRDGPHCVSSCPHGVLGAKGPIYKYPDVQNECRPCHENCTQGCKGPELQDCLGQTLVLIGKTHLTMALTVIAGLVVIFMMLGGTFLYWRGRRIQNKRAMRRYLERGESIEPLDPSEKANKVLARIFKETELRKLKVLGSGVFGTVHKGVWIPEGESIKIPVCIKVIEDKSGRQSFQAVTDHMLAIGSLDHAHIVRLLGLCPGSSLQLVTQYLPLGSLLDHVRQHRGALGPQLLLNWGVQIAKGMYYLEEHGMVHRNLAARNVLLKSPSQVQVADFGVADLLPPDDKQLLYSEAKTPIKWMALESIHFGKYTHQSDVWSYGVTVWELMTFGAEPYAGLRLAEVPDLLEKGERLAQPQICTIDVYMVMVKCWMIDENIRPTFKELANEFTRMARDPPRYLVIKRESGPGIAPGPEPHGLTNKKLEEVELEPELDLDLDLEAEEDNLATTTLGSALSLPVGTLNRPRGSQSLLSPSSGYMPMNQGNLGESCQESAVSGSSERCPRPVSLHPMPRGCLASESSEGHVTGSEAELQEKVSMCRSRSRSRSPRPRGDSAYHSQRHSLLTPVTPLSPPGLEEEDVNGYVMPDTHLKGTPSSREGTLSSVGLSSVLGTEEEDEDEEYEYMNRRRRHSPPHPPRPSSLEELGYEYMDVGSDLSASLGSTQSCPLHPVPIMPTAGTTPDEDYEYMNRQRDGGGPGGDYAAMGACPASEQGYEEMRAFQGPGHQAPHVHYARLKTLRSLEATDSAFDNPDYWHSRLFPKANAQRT

[13] = target: FER (human) (UniProt P16591)
[14] = target: GSK3A (human) (UniProt P49840)
[15] = target: HIPK1 (human) (UniProt Q86Z02)
Chain of HIPK1 (human) (Q86Z02 whole entry, looked up): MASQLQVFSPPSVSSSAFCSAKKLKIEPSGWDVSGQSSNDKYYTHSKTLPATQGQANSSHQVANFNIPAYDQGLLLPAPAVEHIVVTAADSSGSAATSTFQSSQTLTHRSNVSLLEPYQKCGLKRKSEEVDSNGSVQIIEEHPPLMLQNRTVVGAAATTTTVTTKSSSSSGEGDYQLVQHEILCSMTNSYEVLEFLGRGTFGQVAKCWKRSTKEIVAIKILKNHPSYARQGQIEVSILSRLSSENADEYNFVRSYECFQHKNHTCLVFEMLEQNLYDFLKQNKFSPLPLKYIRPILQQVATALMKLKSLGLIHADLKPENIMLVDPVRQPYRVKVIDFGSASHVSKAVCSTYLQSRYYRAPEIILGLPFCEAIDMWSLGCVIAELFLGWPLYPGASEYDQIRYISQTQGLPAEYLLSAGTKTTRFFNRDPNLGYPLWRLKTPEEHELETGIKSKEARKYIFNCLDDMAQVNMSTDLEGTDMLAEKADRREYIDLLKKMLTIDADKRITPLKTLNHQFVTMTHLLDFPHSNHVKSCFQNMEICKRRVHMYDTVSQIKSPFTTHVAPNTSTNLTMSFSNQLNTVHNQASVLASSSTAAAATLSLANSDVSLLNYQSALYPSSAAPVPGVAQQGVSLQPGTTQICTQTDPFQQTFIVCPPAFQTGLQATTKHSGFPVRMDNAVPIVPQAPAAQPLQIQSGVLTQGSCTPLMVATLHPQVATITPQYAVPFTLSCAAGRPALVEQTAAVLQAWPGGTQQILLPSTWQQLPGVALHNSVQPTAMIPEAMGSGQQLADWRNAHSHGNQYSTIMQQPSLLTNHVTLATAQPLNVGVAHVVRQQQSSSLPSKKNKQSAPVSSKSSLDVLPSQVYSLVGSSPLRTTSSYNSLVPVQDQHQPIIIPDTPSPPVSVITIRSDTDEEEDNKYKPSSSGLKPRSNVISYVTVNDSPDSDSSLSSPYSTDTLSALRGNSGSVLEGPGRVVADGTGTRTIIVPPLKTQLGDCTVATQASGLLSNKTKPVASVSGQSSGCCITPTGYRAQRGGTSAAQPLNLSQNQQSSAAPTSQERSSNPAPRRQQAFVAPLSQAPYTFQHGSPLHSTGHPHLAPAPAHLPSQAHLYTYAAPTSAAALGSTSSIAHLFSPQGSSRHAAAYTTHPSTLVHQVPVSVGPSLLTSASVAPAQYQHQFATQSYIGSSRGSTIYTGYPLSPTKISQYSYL

[16] = target: HIPK3 (human) (UniProt Q9H422)
[17] = target: IRAK3 (human) (UniProt Q9Y616)
[18] = target: JAK2 JH1 catalytic (human) (UniProt O60674)
[19] = target: LIMK2 (human) (UniProt P53671)
[20] = target: LYN (human) (UniProt P07948)
[21] = target: MAP2K3 (human) (UniProt P46734)
[22] = target: MAP2K5 (human) (UniProt Q13163)
[23] = target: MAPK11 (human) (UniProt Q15759)
[24] = target: MAPK13 (human) (UniProt O15264)
[25] = target: MARK1 (human) (UniProt Q9P0L2)
[26] = target: MARK4 (human) (UniProt Q96L34)
[27] = target: NEK3 (human) (UniProt P51956)
[28] = target: NEK7 (human) (UniProt Q8TDX7)
[29] = target: PAK2 (human) (UniProt Q13177)
[30] = system: PIK3CA (human), P42336 [Q546K]
[31] = target: PRKX (human) (UniProt P51817)
[32] = system: RET (human), P07949 [V804M]
[33] = target: STK16 (human) (UniProt O75716)
[34] = target: STK3 (human) (UniProt Q13188)
[35] = target: STK4 (human) (UniProt Q13043)
[36] = target: TAOK3 (human) (UniProt Q9H2K8)
[37] = target: TGFBR2 (human) (UniProt P37173)
[38] = target: TLK1 (human) (UniProt Q9UKI8)
[39] = target: TYK2 JH2 pseudokinase (human) (UniProt P29597)
[40] = target: WNK3 (human) (UniProt Q9BYP7)
Chain of WNK3 (human) (Q9BYP7 whole entry, looked up): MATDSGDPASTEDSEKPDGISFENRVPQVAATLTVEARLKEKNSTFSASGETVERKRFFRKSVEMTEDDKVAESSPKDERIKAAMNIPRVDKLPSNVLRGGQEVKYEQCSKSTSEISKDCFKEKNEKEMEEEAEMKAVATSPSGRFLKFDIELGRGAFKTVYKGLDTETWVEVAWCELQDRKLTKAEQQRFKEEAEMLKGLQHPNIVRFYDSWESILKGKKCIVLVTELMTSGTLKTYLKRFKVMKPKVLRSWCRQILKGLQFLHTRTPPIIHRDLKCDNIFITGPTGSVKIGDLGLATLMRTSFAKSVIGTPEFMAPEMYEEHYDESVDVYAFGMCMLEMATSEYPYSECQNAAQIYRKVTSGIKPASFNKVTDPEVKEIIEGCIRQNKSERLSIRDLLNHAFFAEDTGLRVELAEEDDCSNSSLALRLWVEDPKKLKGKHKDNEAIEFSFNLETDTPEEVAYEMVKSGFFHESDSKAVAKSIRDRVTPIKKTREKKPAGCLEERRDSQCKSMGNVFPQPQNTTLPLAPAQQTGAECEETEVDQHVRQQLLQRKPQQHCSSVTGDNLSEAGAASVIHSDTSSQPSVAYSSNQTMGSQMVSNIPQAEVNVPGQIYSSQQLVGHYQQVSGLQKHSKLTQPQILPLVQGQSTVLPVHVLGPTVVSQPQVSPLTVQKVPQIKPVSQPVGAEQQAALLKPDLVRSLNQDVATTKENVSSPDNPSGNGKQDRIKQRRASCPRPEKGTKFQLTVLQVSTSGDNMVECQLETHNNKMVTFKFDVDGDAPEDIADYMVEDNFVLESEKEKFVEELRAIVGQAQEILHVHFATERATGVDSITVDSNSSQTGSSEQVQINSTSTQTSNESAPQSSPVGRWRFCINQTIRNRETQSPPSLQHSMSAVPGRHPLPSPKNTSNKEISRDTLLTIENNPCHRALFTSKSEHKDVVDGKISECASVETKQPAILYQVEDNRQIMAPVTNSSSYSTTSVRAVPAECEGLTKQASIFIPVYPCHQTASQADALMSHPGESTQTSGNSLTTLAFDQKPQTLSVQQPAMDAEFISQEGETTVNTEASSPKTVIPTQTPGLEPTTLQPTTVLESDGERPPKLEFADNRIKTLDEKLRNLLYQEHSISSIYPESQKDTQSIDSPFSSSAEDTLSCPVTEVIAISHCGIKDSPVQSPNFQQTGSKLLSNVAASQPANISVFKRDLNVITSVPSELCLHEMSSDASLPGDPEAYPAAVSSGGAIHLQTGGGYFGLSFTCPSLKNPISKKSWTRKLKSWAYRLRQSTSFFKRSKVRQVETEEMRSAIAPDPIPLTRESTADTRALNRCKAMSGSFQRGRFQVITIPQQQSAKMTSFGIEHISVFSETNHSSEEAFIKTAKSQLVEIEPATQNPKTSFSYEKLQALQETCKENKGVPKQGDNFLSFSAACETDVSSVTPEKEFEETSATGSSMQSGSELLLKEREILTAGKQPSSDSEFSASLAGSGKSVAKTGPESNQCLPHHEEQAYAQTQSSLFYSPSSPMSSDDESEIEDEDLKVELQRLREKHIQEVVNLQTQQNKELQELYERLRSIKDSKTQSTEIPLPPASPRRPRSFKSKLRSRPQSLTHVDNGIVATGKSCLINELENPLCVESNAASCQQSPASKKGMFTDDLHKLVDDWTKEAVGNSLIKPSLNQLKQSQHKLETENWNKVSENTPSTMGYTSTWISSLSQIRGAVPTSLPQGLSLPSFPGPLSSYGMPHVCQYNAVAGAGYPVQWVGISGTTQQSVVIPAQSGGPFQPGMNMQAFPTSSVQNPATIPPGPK

Chain of CAMK2G (human) (Q13555 whole entry, looked up): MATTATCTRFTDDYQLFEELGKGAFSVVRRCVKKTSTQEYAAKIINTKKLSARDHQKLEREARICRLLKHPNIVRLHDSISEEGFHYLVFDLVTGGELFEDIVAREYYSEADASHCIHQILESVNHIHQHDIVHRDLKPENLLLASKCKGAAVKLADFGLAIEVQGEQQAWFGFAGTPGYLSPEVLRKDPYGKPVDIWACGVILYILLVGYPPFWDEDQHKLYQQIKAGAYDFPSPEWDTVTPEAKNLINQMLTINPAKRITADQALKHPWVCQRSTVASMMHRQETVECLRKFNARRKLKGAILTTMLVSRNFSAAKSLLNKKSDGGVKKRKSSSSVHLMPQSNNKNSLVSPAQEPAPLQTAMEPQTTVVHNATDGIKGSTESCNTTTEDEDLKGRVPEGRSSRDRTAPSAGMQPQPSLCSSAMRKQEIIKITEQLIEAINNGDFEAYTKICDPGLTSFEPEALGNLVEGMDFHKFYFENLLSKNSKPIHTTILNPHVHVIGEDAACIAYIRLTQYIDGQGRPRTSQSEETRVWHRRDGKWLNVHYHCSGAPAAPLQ

**Q.** Which results are given for `CCc1ccc(C(=O)Nc2cc(CN3CCN(C)CC3)cc(C(F)(F)F)c2)cc1C#Cc1cnc2ccnn2c1`?
**A.** kinase still bound, per cent of control [1]: 100%; kinase still bound, per cent of control [2]: 86%; kinase still bound, per cent of control [3]: 90%; kinase still bound, per cent of control [4]: 79%; kinase still bound, per cent of control [5]: 100%; kinase still bound, per cent of control [6]: 71%; kinase still bound, per cent of control [7]: 100%; kinase still bound, per cent of control [8]: 100%; kinase still bound, per cent of control [9]: 100%; kinase still bound, per cent of control [10]: 100%; kinase still bound, per cent of control [11]: 100%; kinase still bound, per cent of control [12]: 86%; kinase still bound, per cent of control [13]: 70%; kinase still bound, per cent of control [14]: 100%; kinase still bound, per cent of control [15]: 100%; kinase still bound, per cent of control [16]: 100%; kinase still bound, per cent of control [17]: 80%; kinase still bound, per cent of control [18]: 100%; kinase still bound, per cent of control [19]: 100%; kinase still bound, per cent of control [20]: 35%; kinase still bound, per cent of control [21]: 100%; kinase still bound, per cent of control [22]: 100%; kinase still bound, per cent of control [23]: 100%; kinase still bound, per cent of control [24]: 69%; kinase still bound, per cent of control [25]: 74%; kinase still bound, per cent of control [26]: 71%; kinase still bound, per cent of control [27]: 78%; kinase still bound, per cent of control [28]: 95%; kinase still bound, per cent of control [29]: 76%; kinase still bound, per cent of control [30]: 100%; kinase still bound, per cent of control [31]: 100%; kinase still bound, per cent of control [32]: 80%; kinase still bound, per cent of control [33]: 71%; kinase still bound, per cent of control [34]: 100%; kinase still bound, per cent of control [35]: 63%; kinase still bound, per cent of control [36]: 100%; kinase still bound, per cent of control [37]: 100%; kinase still bound, per cent of control [38]: 100%; kinase still bound, per cent of control [39]: 100%; kinase still bound, per cent of control [40]: 100%
